Results taken from article PMC3842668, “Dual-acting stapled peptides target both HIV-1 entry and assembly” (Retrovirology, 2013).
Read-outs that look alike come from different tables or passages of the source. Where a SMILES comes first, the peptide text is derived from it. Bridges are numbered along the chain shown (N, C = ends). [ ]: non-standard residue; d: D form. R8 = C=CCCCCCC[C@@](C)(N)C(=O)O; S5 = C=CCCC[C@](C)(N)C(=O)O

Legend:
[1] = system: N-terminal and C-terminal V3 loop peptides; test: ITC binding to N-terminal and C-terminal V3 loop peptides; design: species or system HIV-1; details: overlapping 15-mer V3 peptides
Experimental: (§1) We also used ITC to measure the binding affinity of the stapled peptides to full-length cyclic V3 loop peptide.
(§2) Full-length V3 peptide (Cat# 1840), cyclic V3 peptide (Cat# 1837) and 15-mer overlapping V3 peptides (Cat# 1832, 6282, 6283, 6284, 6285, 6287, 6288, 6289, 6290 and 6291, for amino acid sequence see HIV-1 Subtype B (MN) Env Peptides - Complete Set Cat# 6451) were obtained through the NIH ARP.
(§3) For forward titration, 90 μM full-length V3 peptide, full-length cyclic V3 peptide or 90 μM 15-mer V3 peptides were titrated into 4.5 μM of stapled or linear peptides. Reference measurements were performed by titrating 90 μM full-length V3 peptide, full-length cyclic V3 peptide or 15-mer V3 peptide into buffer without peptide. For reverse titration, 90 μM stapled peptide was titrated into 4.5 μM full-length V3 peptide, full-length cyclic V3 peptide or […]. Reference measurements were performed by titrating 90 μM stapled peptide into buffer without peptide.

WT NL4-3 [2] = test: Spreading virus replication in Jurkat T-cell line, RT activity, WT; assay type: cell-based, HIV-1; details: Jurkat cells transfected with pNL4-3 (WT), 37.5 μM peptide
[3] = system: HIV-1 V120Q/A327P Env mutant; assay type: cell-based
WT NL4-3 [4] = test: Virus replication in PBMC, WT; assay type: cell-based, HIV-1; details: PBMC from three donors, 30 μM peptide, RT activity
V120Q/A327P mutant = test: Virus replication in PBMC, Env mutant; assay type: cell-based, HIV-1; details: PBMC from three donors, 30 μM peptide, RT activity
[5] = biological target: tip of V3 loop (15-mer V3 tip peptide); test: ITC binding to 15-mer V3 tip peptide; design: species or system HIV-1; details: 90 μM 15-mer V3 tip peptide titrated into 4.5 μM peptide, single-site model
Experimental: as §1, §2, §3

HIV-1 CA = biological target: T1, HIV-1 CA (Human immunodeficiency virus type 1 group M subtype B, UniProt P12493); test: Turbidity-based in vitro CA assembly assay; assay type: biochemical; details: turbidity at 350 nm; for Effect on CA assembly, turbidity (in words): 50 mM NaPO4 pH 8.0; for initial rate of CA assembly: compound:CA ratio 2:1, mean ± standard deviation from three experiments, DMSO control 216 ± 6.23
T1 construct: Wild-type HIV-1 CA was overexpressed and purified as previously described; made in house
Experimental: The ability of stapled peptides to disrupt CA-CA interactions was also assessed using a turbidity-based in vitro CA assembly assay. This assay is based on the observation that the turbidity of a CA-containing solution increases in proportion to the extent of assembly.
Wild-type HIV-1 CA was overexpressed and purified as previously described. […] Turbidity assays were carried out in triplicate using a Beckman spectrophotometer at a wavelength of 350 nm to monitor HIV-1 in vitro assembly conducted at ambient temperatures. Protein samples were prepared in an assembly buffer [50 mM NaPO4 pH 8.0]. In vitro assembly reactions were prepared with 250 μl of assembly buffer containing 60 μM protein. To catalyze CA assembly 250 μl of an assembly buffer containing 5M NaCl was added. The solution was mixed by agitation and transferred a cuvette for a total delay of 20 seconds. Assembly was monitored every 10 sec for the first min and every min thereafter for a total 10 min. Assembly reactions with stapled peptides were incubated in the assembly buffer for 10 min and then centrifuged for 1 min to separate any insoluble fractions before catalyzing assembly.

HIV-1 pNL4-3 (WT) = assay type: cell-based
WT HIV-1 (NL4-3) = assay type: cell-based
HIV-1 pNL4-3 = test: Virus assembly and release assay, Gag processing; assay type: cell-based; details: 293T cells transfected with pNL4-3, peptide for 16–20 h, ratio of Pr55Gag to p24
Experimental: This inhibition was specific to HIV-1 as the release of another lentivirus, equine infectious anemia virus (EIAV), was not inhibited. In this study we investigated whether i,i + 7 stapled CAI-derived peptides have any effect on virus release. 293T cells were transfected with the full-length HIV-1 molecular clone pNL4-3, treated with stapled peptides for 16–20 h, and metabolically labeled with [^35S]Met/Cys. The cell- and virus-associated proteins were immunoprecipitated with HIV-Ig.
Figure 6 i + 7 stapled peptides have no effect on HIV-1 release, but impair Gag processing. […] Cells were metabolically labeled with [^35S]Met/Cys for 2 h. Cells were lysed and virions were collected by ultracentrifugation. Cell and virus lysates were immunoprecipitated with HIV-Ig and subjected to SDS-PAGE. Protein band intensities were quantified by phosphorimager analysis, and HIV-1 release was calculated as the amount of virion-associated p24 relative to total (cell- plus virion-associated) Gag. (b) Accumulation of unprocessed Gag in cells was measured by calculating the ratio of Pr55^Gag to p24 in cells. P values were calculated by Student’s t-test, with P < 0.05 considered significant. N = 3, ± SD.
293T cells, plated at 3 × 10^5 cells/well in 12 well plates, were transfected with the HIV-1 molecular clone pNL4-3 [69]. […] One day posttransfection, cells were metabolically labeled with [^35S]Met/Cys for 2 h. The labeled virions were pelleted in an ultracentrifuge, and the virus and cell lysates were immunoprecipitated with pooled sera from HIV-1-infected patients (HIV-Ig, obtained from the ARP) and subjected to SDS-PAGE. Protein band intensities were quantified by phosphorimager analysis, and virus release was calculated as the amount of virion-associated Gag as a fraction of total (cell- plus virion-associated) Gag synthesized during the metabolic labeling period. Accumulation of Pr55^Gag in cells was measured by calculating the ratio of Pr55^Gag to p24 (CA).

[6] = 50 μM peptide during 2 h infection, TZM-bl cells, luciferase two days post-infection

## CC[C@H](C)[C@H](NC(C)=O)C(=O)N[C@@H](CO)C(=O)N[C@@H](Cc1ccccc1)C(=O)N[C@]1(C)CCCCCCC=CCCC[C@@](C)(C(=O)N[C@@H](CCC(=O)O)C(=O)N[C@@H](CC(=O)O)C(=O)N[C@@H](CCC(=O)O)C(N)=O)NC(=O)[C@H](Cc2ccc(O)cc2)NC(=O)[C@H](C)NC(=O)[C@H](CCC(N)=O)NC(=O)[C@H](CC(C)C)NC(=O)[C@H](Cc2c[nH]c3ccccc23)NC(=O)[C@H](CCC(=O)O)NC1=O [NYAD-67] (Ac-ISF[R8]EWLQAY[S5]EDE-NH2; staple 4-11)
[1]
  binding to N-terminal and C-terminal V3 loop peptides (in words): neither N-terminal nor C-terminal V3 loop peptides bind
WT NL4-3 [2]
  virus replication (in words): completely blocked
[3]
  fold reduction of virus infectivity, V120Q/A327P double mutant: ~ 2.5 fold
WT NL4-3 [4]
  virus replication (in words): strongly inhibited replication of WT NL4-3 in PBMC
V120Q/A327P mutant
  virus replication (in words): showed some antiviral activity against the V120Q/A327P mutant
[5]
  Kd: 8.92 ± 1.8 µM
MT-2 cells
  % toxicity at that dose (number in parenthesis): 0%
  CC 50 (μM ± SD) in MT-2: > 107.4 µM
293T cells
  Cell penetration (in words): penetrate cells less efficiently than NYAD-1
HIV-1 CA
  Effect on CA assembly, turbidity (in words): did not influence the rate or extent of CA assembly
  initial rate of CA assembly: 205 ± 18.89 mOD/min
HIV-1 pNL4-3 (WT)
  reduction in infectivity of virions produced from treated cells: two-log reduction in infectivity
WT HIV-1 (NL4-3)
  fold reduction of virus infectivity, WT: > 40 fold
HIV-1 pNL4-3
  Accumulation of cell-associated Pr55Gag (in words): modest accumulation of cell-associated Pr55^Gag

## Ac-ISF-R8-ELLDYY-S5-EKSGSKD-amide (sidechain bridge or staple) [NYAD-55]
MT-2 cells
  CC 50 (μM ± SD) in MT-2: >89.7 µM

## Ac-RSF-R8-RLLDYY-S5-ESGS-amide (sidechain bridge or staple) [NYAD-61]
MT-2 cells
  CC 50 (μM ± SD) in MT-2: 31.7 ± 1.4 µM

## Ac-RRF-R8-ELLDYY-S5-ESGS-amide (sidechain bridge or staple) [NYAD-62]
MT-2 cells
  CC 50 (μM ± SD) in MT-2: 15.4 ± 0.2 µM

## CC[C@H](C)[C@H](NC(C)=O)C(=O)N[C@@H](CO)C(=O)N[C@@H](Cc1ccccc1)C(=O)N[C@]1(C)CCCCCCC=CCCC[C@@](C)(C(=O)N[C@@H](CCC(=O)O)C(=O)N[C@@H](CC(=O)O)C(N)=O)NC(=O)[C@H](Cc2ccc(O)cc2)NC(=O)[C@H](Cc2ccc(O)cc2)NC(=O)[C@H](CC(=O)O)NC(=O)[C@H](CC(C)C)NC(=O)[C@H](CC(C)C)NC(=O)[C@H](CCC(=O)O)NC1=O [NYAD-66] (Ac-ISF[R8]ELLDYY[S5]ED-NH2; staple 4-11)
WT NL4-3 [2]
  virus replication (in words): significantly delayed
[3]; [6]
  fold reduction of virus infectivity, V120Q/A327P double mutant: less than 2 fold
WT NL4-3 [4]
  virus replication (in words): strongly inhibited replication of WT NL4-3 in PBMC
V120Q/A327P mutant
  virus replication (in words): showed some antiviral activity against the V120Q/A327P mutant
MT-2 cells
  % toxicity at that dose (number in parenthesis): 0%
  CC 50 (μM ± SD) in MT-2: > 115 µM
293T cells
  Cell penetration (in words): penetrate cells less efficiently than NYAD-1
HIV-1 CA
  Effect on CA assembly, turbidity (in words): reduced the extent of CA assembly in a dose-dependent manner
  initial rate of CA assembly: 166 ± 18.91 mOD/min
HIV-1 pNL4-3 (WT); 293T producer cells treated with 50 μM peptide for two days, RT-normalized virus on TZM-bl, luciferase
  reduction in infectivity of virions produced from treated cells: four-fold
WT HIV-1 (NL4-3); [6]
  fold reduction of virus infectivity, WT: around 3 fold
HIV-1 pNL4-3
  Accumulation of cell-associated Pr55Gag (in words): modest accumulation of cell-associated Pr55^Gag

## Ac-ISF-R8-ELEDYY-S5-ESGS (sidechain bridge or staple) [NYAD-43]
MT-2 cells
  CC 50 (μM ± SD) in MT-2: >106.6 µM

## Ac-RSFE-R8-LLDYYG-S5-SGS-amide (sidechain bridge or staple) [NYAD-65]
MT-2 cells
  CC 50 (μM ± SD) in MT-2: >116 µM

## Ac-IRQGPKEPFRDYVDR-NH2 [NYAD-401, reference compound]
HIV-1 CA
  Effect on CA assembly, turbidity (in words): no observable effect on CA assembly
  initial rate of CA assembly: 223 ± 32.5 mOD/min

## IRF-R8-QLLNYY-S5-ESGS-amide (sidechain bridge or staple) [NYAD-58]
MT-2 cells
  CC 50 (μM ± SD) in MT-2: 14.9 ± 1 µM

## Ac-ISF-R8-QLLDYY-S5-QSGSK-amide (sidechain bridge or staple) [NYAD-46]
MT-2 cells
  CC 50 (μM ± SD) in MT-2: 10.6 ± 0.6 µM

## ISF-R8-ELLNYY-S5-ESGS-amide (sidechain bridge or staple) [NYAD-57]
MT-2 cells
  CC 50 (μM ± SD) in MT-2: 39.6 ± 4.4 µM

## Ac-ISF-R8-ELLRYY-S5-R-amide (sidechain bridge or staple) [NYAD-56]
MT-2 cells
  CC 50 (μM ± SD) in MT-2: 16.4 ± 1.2 µM

## Ac-SK-R8-ELLDYY-S5-ESGS-amide (sidechain bridge or staple) [NYAD-64]
MT-2 cells
  CC 50 (μM ± SD) in MT-2: >109 µM

## Ac-ISF-R8-EWLQYY-S5-R-amide (sidechain bridge or staple) [NYAD-33]
MT-2 cells
  CC 50 (μM ± SD) in MT-2: 9.2 ± 0.26 µM

## Ac-R-R8-FAELLD-S5-YGESGS-amide (sidechain bridge or staple) [NYAD-63]
MT-2 cells
  CC 50 (μM ± SD) in MT-2: >113 µM

## Ac-ISF-R8-ELLDYY-S5-ESGSKKK-amide (sidechain bridge or staple) [NYAD-44]
MT-2 cells
  CC 50 (μM ± SD) in MT-2: 17.2 ± 1.4 µM

## Ac-ISFDELLDYYGESGS [NYAD-41]
293T cells; FACS, 293T cells, 4 μM FAM-conjugated peptide, 20 h at 37°C, serum-free media, 0.25% Trypsin-EDTA 30 min
  % FAM: 1.43%
